Measurements: ChEMBL document CHEMBL1201862, “PubChem BioAssay data set” (2004)
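All cell lines were grown in 96-well plates and treated with compound for 48 hours. At the GI50, growth is halved.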 Calls of active or inactive are those of the source. Rule as the data show it: active = GI50 up to about 1.1 µM and inactive = higher.

What was measured:
Experiment in all cases: DTP human tumour cell line panel, 48 h
[1] = test system: DMS-273
[2] = test system: OVCAR-4
[3] = test system: NCI-H460
[4] = test system: ACHN
[5] = test system: 786-0
[6] = test system: T47D
[7] = test system: RXF 393
[8] = test system: OVCAR-3
[9] = test system: SK-OV-3
[10] = test system: LOX IMVI
[11] = test system: SW-620
[12] = test system: HOP-62
[13] = test system: HOP-18
[14] = test system: CCRF-CEM
[15] = test system: EKVX
[16] = test system: Malme-3M
[17] = test system: SN12C
[18] = test system: SNB-75
[19] = test system: MDA-N
[20] = test system: HCT-15
[21] = test system: MCF7
[22] = test system: RPMI-8226
[23] = test system: OVCAR-5
[24] = test system: NCI/ADR-RES
[25] = test system: K562
[26] = test system: UACC-62
[27] = test system: SF-539
[28] = test system: Hs-578T
[29] = test system: SF-268
[30] = test system: SNB-19
[31] = test system: OVCAR-8
[32] = test system: IGROV-1
[33] = test system: BT-549
[34] = test system: M14
[35] = test system: SK-MEL-28
[36] = test system: HCC 2998
[37] = test system: PC-3
[38] = test system: HL-60
[39] = test system: UACC-257
[40] = test system: SR
[41] = test system: MDA-MB-435
[42] = test system: NCI-H23
[43] = test system: U-251
[44] = test system: NCI-H226
[45] = test system: HCT-116
[46] = test system: DMS-114
[47] = test system: XF498
[48] = test system: SK-MEL-5
[49] = test system: DU-145
[50] = test system: KM-20L2
[51] = test system: KM12
[52] = test system: SNB-78
[53] = test system: LXFL 529
[54] = test system: DLD-1
[55] = test system: A498
[56] = test system: SK-MEL-2
[57] = test system: HT-29
[58] = test system: MDA-MB-231
[59] = test system: A549
[60] = test system: UO-31
[61] = test system: COLO 205
[62] = test system: M19-MEL
[63] = test system: MOLT-4
[64] = test system: HOP-92
[65] = test system: SF-295
[66] = test system: NCI-H522
[67] = test system: TK-10
[68] = test system: RXF 631

`CC[C@H]1CN2CCc3cc(OC)c(OC)cc3[C@@H]2C[C@@H]1C[C@H]1NCCc2c1[nH]c1ccc(O)cc21` [TUBULOSINE] was tested, and the GI50 [1] was < 10 nM (active), the GI50 [2] was < 10 nM (active) and the GI50 [3] was 10.2 nM (active). For the same compound, the GI50 [4] was 39.6 nM (active), the GI50 [5] was < 10 nM (active) and the GI50 [6] was < 10.6 nM (active). For the same compound, the GI50 [7] was 16 nM (active), the GI50 [8] was 27.6 nM (active) and the GI50 [9] was 22.2 nM (active). For the same compound, the GI50 [10] was < 10 nM (active), the GI50 [11] was < 11.9 nM (active) and the GI50 [12] was < 10 nM (active). For the same compound, the GI50 [13] was 45.4 nM (active), the GI50 [14] was < 10 nM (active) and the GI50 [15] was 29.4 nM (active). The GI50 [16] was 42.1 nM (active), the GI50 [17] was < 10 nM (active) and the GI50 [18] was < 10 nM (active). For the same compound, the GI50 [19] was < 10 nM (active), the GI50 [20] was 384 nM and the GI50 [21] was < 10 nM (active). The GI50 [22] was < 13.3 nM (active), the GI50 [23] was 15.3 nM (active) and the GI50 [24] was 1730 nM (inactive). The GI50 [25] was < 13 nM (active), the GI50 [26] was 18.2 nM (active) and the GI50 [27] was 16.4 nM (active). For the same compound, the GI50 [28] was 16.9 nM (active), the GI50 [29] was < 10.5 nM (active) and the GI50 [30] was < 10 nM (active). The GI50 [31] was 12.5 nM (active), the GI50 [32] was 15.7 nM (active) and the GI50 [33] was 191 nM (active). For the same compound, the GI50 [34] was < 12.5 nM (active), the GI50 [35] was 21.1 nM (active) and the GI50 [36] was < 10.5 nM (active). The GI50 [37] was < 15.6 nM (active), the GI50 [38] was < 10 nM (active) and the GI50 [39] was 58.2 nM (active). The GI50 [40] was < 215 nM (active), the GI50 [41] was < 12.5 nM (active) and the GI50 [42] was < 11.3 nM (active). For the same compound, the GI50 [43] was < 10.3 nM (active), the GI50 [44] was < 11.3 nM (active) and the GI50 [45] was 10.2 nM (active). For the same compound, the GI50 [46] was < 10 nM (active), the GI50 [47] was 18.8 nM (active) and the GI50 [48] was 13.5 nM (active). For the same compound, the GI50 [49] was < 10 nM (active), the GI50 [50] was 15.3 nM (active) and the GI50 [51] was 24.6 nM (active). The GI50 [52] was 13.6 nM (active), the GI50 [53] was 20.2 nM (active) and the GI50 [54] was 27.9 nM (active). The GI50 [55] was 30.1 nM (active), the GI50 [56] was 13.7 nM (active) and the GI50 [57] was < 10 nM (active). The GI50 [58] was < 10 nM (active), the GI50 [59] was < 10 nM (active) and the GI50 [60] was 326 nM (active). The GI50 [61] was < 10 nM (active), the GI50 [62] was < 10 nM (active) and the GI50 [63] was < 10 nM (active). For the same compound, the GI50 [64] was 10.5 nM (active), the GI50 [65] was 19.5 nM (active) and the GI50 [66] was < 10 nM (active). The GI50 [67] was 38.8 nM (active).

For `CCCC(=O)OCC1OC2OC(C)(C)OC2C2OC(C)(C)OC12` (stereo unspecified), the GI50 [1] was > 100000 nM (inactive), the GI50 [3] was > 100000 nM (inactive) and the GI50 [4] was > 100000 nM (inactive). The GI50 [7] was > 100000 nM (inactive), the GI50 [9] was > 100000 nM (inactive) and the GI50 [12] was > 100000 nM (inactive). For the same compound, the GI50 [14] was > 100000 nM (inactive), the GI50 [15] was > 100000 nM (inactive) and the GI50 [23] was > 100000 nM (inactive). The GI50 [68] was > 100000 nM (inactive), the GI50 [30] was > 100000 nM (inactive) and the GI50 [31] was > 100000 nM (inactive). The GI50 [32] was > 100000 nM (inactive), the GI50 [34] was > 100000 nM (inactive) and the GI50 [35] was > 100000 nM (inactive). The GI50 [38] was > 100000 nM (inactive), the GI50 [39] was > 100000 nM (inactive) and the GI50 [40] was > 100000 nM (inactive). The GI50 [42] was > 100000 nM (inactive), the GI50 [43] was > 100000 nM (inactive) and the GI50 [44] was 19000 nM (inactive). For the same compound, the GI50 [45] was > 100000 nM (inactive), the GI50 [51] was > 100000 nM (inactive) and the GI50 [52] was > 100000 nM (inactive). The GI50 [55] was > 100000 nM (inactive), the GI50 [57] was > 100000 nM (inactive) and the GI50 [59] was > 100000 nM (inactive). The GI50 [60] was > 100000 nM (inactive), the GI50 [62] was > 100000 nM (inactive) and the GI50 [63] was > 100000 nM (inactive). For the same compound, the GI50 [64] was > 100000 nM (inactive), the GI50 [65] was > 100000 nM (inactive) and the GI50 [66] was > 100000 nM (inactive). For the same compound, the GI50 [67] was 23600 nM (inactive).
